# Data as given in patent publication US20070202578A1, “Production of globosides oligosaccharides using metabolically engineered microorganisms” (priority 2005, published 2007).
# Molecular target: T1, LgtD protein (Haemophilus influenzae, UniProt Q57287)
# T1 construct: made in house; host or cells: strain overexpressing lgtD; E. coli K12 derivative is inferred from the lgtD strains described, e.g. TA21 with pACT3-lgtD; used as crude extract
# Experiment: enzymatic assays with crude extracts from a strain overexpressing the lgtD gene (donor Km with globotriose or globotetraose as acceptor)
# Type: biochemical
# T1 sequence (Q57287 whole entry): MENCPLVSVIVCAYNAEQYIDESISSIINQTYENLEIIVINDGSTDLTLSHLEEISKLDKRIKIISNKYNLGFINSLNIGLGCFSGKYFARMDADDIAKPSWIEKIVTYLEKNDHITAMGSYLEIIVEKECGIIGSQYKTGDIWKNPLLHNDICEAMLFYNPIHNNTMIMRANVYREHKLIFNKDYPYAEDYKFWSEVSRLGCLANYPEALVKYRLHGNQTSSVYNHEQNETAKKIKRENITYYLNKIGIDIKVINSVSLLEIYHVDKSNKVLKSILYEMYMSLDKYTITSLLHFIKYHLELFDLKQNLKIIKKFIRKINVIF
smiles,measurement,setting,value
CC(=O)N[C@H]1[C@@H](OP(=O)(O)OP(=O)(O)OC[C@H]2O[C@@H](n3ccc(=O)[nH]c3=O)[C@H](O)[C@@H]2O)O[C@H](CO)[C@H](O)[C@@H]1O [UDP-GalNAc],"Km for UDP-GalNAc, fold lower than for UDP-Gal",globotriose as the acceptor,6 fold
same,fold increase in the Km for UDP-GalNAc,replacement of globotriose by globotetraose as the acceptor,20 fold
